# According to ChEMBL document CHEMBL3286383, “4-Benzofuranyloxynicotinamide derivatives are novel potent and orally available TGR5 agonists” (Eur J Med Chem, 2014):
# Assays:
# [1] = biological target: T1, G-protein coupled bile acid receptor 1 (Homo sapiens, UniProt Q8TDU6); test: Agonist activity at human TGR5 expressed in HEK293 cells co-expressing CRE after 5.5 hrs by luciferase reporter gene assay; type: functional, cell-based
# T1 sequence (Q8TDU6 whole entry): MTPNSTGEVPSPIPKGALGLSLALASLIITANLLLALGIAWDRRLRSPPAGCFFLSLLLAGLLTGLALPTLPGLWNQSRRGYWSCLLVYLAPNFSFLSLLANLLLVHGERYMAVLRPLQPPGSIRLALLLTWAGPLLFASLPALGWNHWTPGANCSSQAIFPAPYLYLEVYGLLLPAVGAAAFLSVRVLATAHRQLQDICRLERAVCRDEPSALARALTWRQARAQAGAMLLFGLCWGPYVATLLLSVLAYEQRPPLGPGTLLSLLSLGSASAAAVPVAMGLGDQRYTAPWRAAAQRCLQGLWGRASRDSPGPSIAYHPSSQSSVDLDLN
# [2] = Efflux ratio of permeability from apical to basolateral side over basolateral to apical side of human Caco2 cells up to 95 mins by LC-MS/MS analysis; settings: Caco-2
# [3] = biological target: T2, G-protein coupled bile acid receptor 1 (Mus musculus, UniProt Q80SS6); test: Agonist activity at mouse TGR5 expressed in HEK293 cells co-expressing CRE after 5.5 hrs by luciferase reporter gene assay; type: functional, cell-based
# T2 sequence (Q80SS6 whole entry): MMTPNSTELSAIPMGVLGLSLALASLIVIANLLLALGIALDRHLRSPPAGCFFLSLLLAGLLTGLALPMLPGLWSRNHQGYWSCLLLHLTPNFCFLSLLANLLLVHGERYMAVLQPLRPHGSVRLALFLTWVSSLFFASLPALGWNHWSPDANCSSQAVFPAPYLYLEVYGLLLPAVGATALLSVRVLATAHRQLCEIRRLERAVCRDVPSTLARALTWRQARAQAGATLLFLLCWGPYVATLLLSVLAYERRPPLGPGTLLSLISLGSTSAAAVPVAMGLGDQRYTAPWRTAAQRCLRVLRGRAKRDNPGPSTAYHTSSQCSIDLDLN
# [4] = Apparent permeability of the compound from basolateral to apical side of human Caco2 cells up to 95 mins by LC-MS/MS analysis; settings: Caco-2
# [5] = Apparent permeability of the compound from apical to basolateral side of human Caco2 cells up to 95 mins by LC-MS/MS analysis; settings: Caco-2
# [6] = biological target: T1, G-protein coupled bile acid receptor 1; test: Agonist activity at human TGR5
# [7] = biological target: T3, G-protein coupled bile acid receptor 1 (Homo sapiens) (UniProt Q8TDU6); test: Agonist activity at human TGR5 expressed in HEK293 cells co-expressing CRE at 1 uM after 5.5 hrs by luciferase reporter gene assay; type: functional, cell-based
# T3 sequence (whole entry): T1 sequence (Q8TDU6 whole entry)
# [8] = Drug level in ICR mouse blood at 50 mg/kg, po after 3 hrs by LC-MS/MS analysis; type: ADME, organism-based; design: dose 50 mg/kg, route oral; settings: read-out: Drug uptake
# [9] = Drug level in ICR mouse gallbladder at 50 mg/kg, po after 3 hrs by LC-MS/MS analysis; type: ADME, organism-based, Gall bladder; design: dose 50 mg/kg, route oral; settings: read-out: Drug uptake
# [10] = Drug level in ICR mouse bile at 50 mg/kg, po after 3 hrs by LC-MS/MS analysis; type: ADME, organism-based; design: dose 50 mg/kg, route oral; settings: read-out: Drug uptake
# [11] = Ratio of plasma concentration in ICR mouse plasma at 50 mg/kg, po after 3 hrs to EC50 for mouse TGR5 expressed in HEK293 cells; type: ADME, organism-based; design: dose 50 mg/kg, route oral; settings: in vivo
# Nucleic Acid [12] = test: Ratio of drug level in ICR mouse bile at 50 mg/kg, po after 3 hrs to EC50 for mouse TGR5 expressed in HEK293 cells; type: organism-based; design: dose 50 mg/kg
# Mus musculus [13] = test: Antidiabetic activity in oral glucose loaded ICR mouse assessed as reduction of AUC (0 to 120 mins) of blood glucose level at 50 mg/kg, po by oral glucose tolerance test; type: functional; design: scale not given: the % may be the effect or the level left
# Nucleic Acid [14] = test: Ratio of drug level in ICR mouse gallbladder at 50 mg/kg, po after 3 hrs to EC50 for mouse TGR5 expressed in HEK293 cells; type: organism-based; design: dose 50 mg/kg
# Mus musculus [15] = test: Gallbladder toxicity in ICR mouse assessed as increase of gallbladder volume at 50 mg/kg, po after 3 hrs; type: organism-based; design: dose 50 mg/kg, route oral; settings: in vivo
EC50 [1] [nM],EC50 [3] [nM],SMILES,also measured
15,60,O=C(c1cnccc1Oc1ccc2ncsc2c1)N1CCN(C2CC2)c2ccccc21,
10.7,28,O=C(c1cnccc1Oc1ccc2occc2c1)N1CCN(C2CC2)c2ccccc21,
178,,O=C(c1cnccc1Oc1cccc2cccnc12)N1CCN(C2CC2)c2ccccc21,
1.5,5.5,Cc1noc2ccc(Oc3ccncc3C(=O)N3CCN(C4CC4)c4ccccc43)cc12,
1220,,O=C(c1cnccc1Oc1ccc2[nH]ccc2c1)N1CCN(C2CC2)c2ccccc21,
240,,Cc1noc2cc(Oc3ccncc3C(=O)N3CCN(C4CC4)c4ccccc43)ccc12,
25,43,O=C(c1cnccc1Oc1ccc2ccoc2c1)N1CCN(C2CC2)c2ccccc21,
41,,O=C(c1cnccc1Oc1ccc2ccccc2c1)N1CCN(C2CC2)c2ccccc21,
0.45,2.4,Cc1coc2ccc(Oc3ccncc3C(=O)N3CCN(C4CC4)c4ccccc43)cc12,
1.4,10,O=C(c1cnccc1Oc1cc2ccoc2cc1Cl)N1CCN(C2CC2)c2ccccc21,
17,66,O=C(c1cnccc1Oc1cccc2ccccc12)N1CCN(C2CC2)c2ccccc21,
148,,O=C(c1cnccc1Oc1cccc2[nH]ccc12)N1CCN(C2CC2)c2ccccc21,
59,,O=C(c1cnccc1Oc1ccc2cccnc2c1)N1CCN(C2CC2)c2ccccc21,
40,,O=C(c1cnccc1Oc1cccc2ncccc12)N1CCN(C2CC2)c2ccccc21,
162,,O=C(c1cnccc1Oc1ccc2cc[nH]c2c1)N1CCN(C2CC2)c2ccccc21,
16,52,O=C(c1cnccc1Oc1ccc2sccc2c1)N1CCN(C2CC2)c2ccccc21,
64,,O=C(c1cnccc1Oc1ccc2ncccc2c1)N1CCN(C2CC2)c2ccccc21,

# Further lines, the compound ahead of its results:
SMILES,EC50 [1] [nM],EC50 [3] [nM],also measured
CCOC(=O)CNC(=O)c1oc2cc(Cl)c(Oc3ccncc3C(=O)N3CCN(C4CC4)c4ccccc43)cc2c1C,78,,
CCOC(=O)CNC(=O)/C=C/c1oc2ccc(Cl)c(Oc3ccncc3C(=O)N3CCN(C4CC4)c4ccccc43)c2c1C,8.5,6.1,efflux ratio at 95 min [2]: 0.48; Papp B→A at 95 min [4]: 0.5 ×10⁻⁶ cm/s; Papp A→B at 95 min [5]: 1.04 ×10⁻⁶ cm/s
CCOC(=O)c1coc2cc(Cl)c(Oc3ccncc3C(=O)N3CCN(C4CC4)c4ccccc43)cc12,1.7,39,
CC(=O)c1cc(C(=O)N2CCN(C3CC3)c3ccccc32)ccc1O,,,EC50 ([6]; read-out: EC50): 2.3 nM
CCOC(=O)CNC(=O)c1coc2cc(Cl)c(Oc3ccncc3C(=O)N3CCN(C4CC4)c4ccccc43)cc12,1400,,
Cc1c(/C=C/C(=O)O)oc2ccc(Cl)c(Oc3ccncc3C(=O)N3CCN(C4CC4)c4ccccc43)c12,25,18,
O=C(O)c1coc2cc(Cl)c(Oc3ccncc3C(=O)N3CCN(C4CC4)c4ccccc43)cc12,,,Activity [7]: 38%
CC(=O)c1cccc(Oc2ccncc2C(=O)N2CCN(C3CC3)c3ccccc32)c1,,,EC50 ([6]; read-out: EC50): 5.5 nM
CCOC(=O)c1oc2cc(Cl)c(Oc3ccncc3C(=O)N3CCN(C4CC4)c4ccccc43)cc2c1C,38,,
CCOC(=O)/C=C/c1oc2ccc(Cl)c(Oc3ccncc3C(=O)N3CCN(C4CC4)c4ccccc43)c2c1C,8.9,16,
O=C(O)Cc1coc2cc(Cl)c(Oc3ccncc3C(=O)N3CCN(C4CC4)c4ccccc43)cc12,1360,,
Cc1c(CCC(=O)O)oc2ccc(Cl)c(Oc3ccncc3C(=O)N3CCN(C4CC4)c4ccccc43)c12,35,101,
COC(=O)CCc1coc2cc(Cl)c(Oc3ccncc3C(=O)N3CCN(C4CC4)c4ccccc43)cc12,24,82,
Cc1c(C(=O)O)oc2cc(Cl)c(Oc3ccncc3C(=O)N3CCN(C4CC4)c4ccccc43)cc12,63,,
O=C(c1cnccc1Oc1ccc(O)cc1)N1CCN(C2CC2)c2ccccc21,,,EC50 [6]: Not Active
CCOC(=O)CNC(=O)Cc1coc2cc(Cl)c(Oc3ccncc3C(=O)N3CCN(C4CC4)c4ccccc43)cc12,520,,
CCOC(=O)CCc1oc2ccc(Cl)c(Oc3ccncc3C(=O)N3CCN(C4CC4)c4ccccc43)c2c1C,18,72,
CCOC(=O)CNC(=O)CCc1oc2ccc(Cl)c(Oc3ccncc3C(=O)N3CCN(C4CC4)c4ccccc43)c2c1C,30,85,
O=C(O)CCc1coc2cc(Cl)c(Oc3ccncc3C(=O)N3CCN(C4CC4)c4ccccc43)cc12,675,,
CCOC(=O)Cc1coc2cc(Cl)c(Oc3ccncc3C(=O)N3CCN(C4CC4)c4ccccc43)cc12,5.2,38,
Cc1c(Br)oc2cc(Cl)c(Oc3ccncc3C(=O)N3CCN(C4CC4)c4ccccc43)cc12,7.7,66,
Cc1coc2cc(Cl)c(Oc3ccncc3C(=O)N3CCN(C4CC4)c4ccccc43)cc12,0.28,0.92,concentration at 3 h [8]: 65 ng/mL; concentration at 3 h [9]: 410 ng/mL; efflux ratio at 95 min [2]: 0.71; concentration at 3 h [10]: 438 ng/mL; Ratio [11]: 153; Ratio (Nucleic Acid [12]): 1030; Papp B→A at 95 min [4]: 1.5 ×10⁻⁶ cm/s; Activity (Mus musculus [13]): 33%; Ratio (Nucleic Acid [14]): 891; Papp A→B at 95 min [5]: 2.1 ×10⁻⁶ cm/s; Activity (Mus musculus [15]): 97%
CCOC(=O)CNC(=O)CCc1coc2cc(Cl)c(Oc3ccncc3C(=O)N3CCN(C4CC4)c4ccccc43)cc12,119,,
